Source: article PMC4901301 (Scientific Reports, 2016)

Each compound was assayed on Mtb H37Rv thyX Tet-OFF conditional knockdown mutant.
Type: cell-based, Mycobacterium tuberculosis

SMILES	MIC90 shift (increase in potency) upon ThyX depletion
O=C1C=C(Cc2ccc(F)cc2)C(=O)c2ccccc21 [Compound D4]	no shift
COc1ccc(CC2=CC(=O)c3ccccc3C2=O)cc1 [Compound D5]	no shift
CC(=O)N(C1=C(Cl)C(=O)c2ccccc2C1=O)c1cccc(F)c1 [Compound E10]	no shift
O=C1C(Cl)=C(N2CCN(C(=O)c3ccc(F)cc3)CC2)C(=O)c2ccccc21 [Compound F1]	no shift
CCS(=O)(=O)N1CCN(C2=C(Cl)C(=O)c3ccccc3C2=O)CC1 [Compound F2]	~ 2 fold
